Experimental data from PubChem BioAssay (NCI).
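48-hour exposure; five concentrations; linearly interpolated endpoints. GI50 = concentration required for 50% inhibition of growth. At the TGI there is no net growth.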

Key:
Experiment in all cases: NCI-60 cell line screen, 48 h
[1] = test system: A498 renal
[2] = test system: M14 melanoma
[3] = test system: MCF7 breast
[4] = test system: NCI-H226 lung
[5] = test system: NCI-H460 lung
[6] = test system: SF-539 CNS
[7] = test system: SK-MEL-2 melanoma
[8] = test system: SK-MEL-5 melanoma
[9] = test system: SR leukemia
[10] = test system: T-47D breast

Row | SMILES | GI50 [1] | TGI [1] | GI50 [2] | TGI [2] | GI50 [3] | TGI [3] | GI50 [4] | TGI [4] | GI50 [5] | TGI [5] | GI50 [6] | TGI [6] | GI50 [7] | TGI [7] | GI50 [8] | TGI [8] | GI50 [9] | TGI [9] | GI50 [10] | TGI [10]
1 | N#C/C(=C\c1ccccn1)c1nc2ccccc2o1 | 30.4 µM | 99.2 µM | 30.7 µM | > 100 µM | 16 µM | > 100 µM | 39.3 µM | > 100 µM | 31.7 µM | > 100 µM | 23.8 µM | 66.5 µM | 29.1 µM | > 100 µM | 18 µM | 43 µM | 20 µM | 78.4 µM | 14.5 µM | 34.3 µM
2 | C(#Cc1ccccc1C#Cc1cnccn1)c1cnccn1 | 20.2 µM | 72.1 µM | 19.3 µM | 48.9 µM | 24.9 µM | > 67.5 µM | 28.1 µM | > 78.4 µM | 18.3 µM | > 71.9 µM | 27.8 µM | > 100 µM | > 38.9 µM | > 61.1 µM | 16.9 µM | 35.9 µM | 6.81 µM | > 100 µM | 39.7 µM | > 100 µM
3 | CCc1n(Cc2ccc3ccccc3c2)cc[n+]1Cc1ccc2ccccc2c1 | 1.13 µM | 4.15 µM | 1.21 µM | 2.96 µM | 0.384 µM | 1.8 µM | 1.08 µM | 3.82 µM | 0.724 µM | 2.15 µM | 0.8 µM | 2.3 µM | 0.534 µM | 2.14 µM | 0.361 µM | 1.28 µM | 0.528 µM | 4.28 µM | 0.425 µM | 4.7 µM
4 | O=C(/C=C/c1cccc(Cl)c1)c1ccccc1 | 10.2 µM | 21.9 µM | 3.78 µM | 13.5 µM | 1.68 µM | 10.3 µM | 14.4 µM | 29.6 µM | 4.86 µM | 18 µM | 13.6 µM | 28.8 µM |  |  | 13.2 µM | 26.3 µM | 2.6 µM | 31.5 µM | 12.7 µM | 32.2 µM
5 | Cc1nc2ccccc2c(/C=C/c2ccc(F)cc2)c1C(=O)/C=C/c1ccccc1 | 2.22 µM | 4.62 µM | 2.87 µM | 9.26 µM | 2.08 µM | > 100 µM | 1.85 µM | 4.16 µM | 1.79 µM | 3.71 µM | 1.81 µM | 3.57 µM | 3.22 µM | 15.8 µM | 2.11 µM | 5.12 µM |  |  | 1.55 µM | 9.87 µM
6 | CC(C)OC(=O)NNc1c(Cl)cc(Cl)cc1Cl |  | > 100 µM |  | > 100 µM |  | > 100 µM |  |  |  | > 100 µM |  | > 100 µM |  | > 100 µM |  | 60.5 µM |  | > 100 µM |  | > 100 µM
7 | CC(C)(C)c1ccc(OCCCCCCCN2CCNCC2)cc1 |  |  | 1.55 µM | 3.02 µM | 1.62 µM | 3.26 µM | 1.86 µM | 4.1 µM | 1.83 µM | 3.47 µM |  |  | 1.74 µM | 3.47 µM | 1.82 µM | 3.4 µM |  |  | 1.76 µM | 3.93 µM
8 | CN(C)Cc1nsc(N(C)C)n1 |  | > 100 µM |  | > 100 µM |  | > 100 µM |  | > 100 µM |  | > 100 µM |  | > 100 µM |  | > 100 µM |  | > 100 µM |  |  |  | > 100 µM
9 | CCCCCCCCCCCCNCCCc1ccccc1 | 2.3 µM | 6.69 µM | 1.76 µM | 3.25 µM | 1.81 µM | 3.35 µM | 1.87 µM | 3.61 µM | 1.83 µM | 3.4 µM | 1.89 µM | 3.32 µM |  |  | 1.73 µM | 3.11 µM | 1.2 µM | 3.56 µM | 1.78 µM | 3.37 µM
10 | Cc1nc2sc(C(=O)Nc3cccc4c3OCCO4)c(N)c2cc1C(C)O (stereo not given) | 2.16 µM | 9.05 µM | 3.01 µM | > 100 µM | 2.11 µM | > 100 µM | > 100 µM | > 100 µM | 3.58 µM | > 100 µM | 2.96 µM | 13.8 µM |  |  | 4.82 µM | > 100 µM | 1.18 µM | > 100 µM | 5.33 µM | > 100 µM
11 | O=C(N/N=C/c1coc2ccc(Cl)cc2c1=O)c1cc(O)c(O)c(O)c1 | 13.6 µM | 42.3 µM | 19.3 µM | 47 µM | 75.7 µM | > 100 µM | 26.1 µM | 68.4 µM | > 100 µM | > 100 µM | 23.6 µM | 62.7 µM | > 100 µM | > 100 µM | 11.6 µM | 34.2 µM |  |  | > 100 µM | > 100 µM
12 | COc1cc2c(cc1OCCCN1CCN(CCCOc3cc4c(cc3OC)C(=O)N3C[C@H](F)C[C@H]3C=N4)CC1)N=C[C@@H]1C[C@@H](F)CN1C2=O | 0.0947 µM | 0.38 µM | 0.0441 µM | 0.198 µM | < 0.0195 µM | > 32.7 µM |  |  | < 0.01 µM |  | 0.0216 µM | 1.23 µM | 0.394 µM | 3.29 µM |  |  | < 0.021 µM | 0.521 µM | 0.0847 µM | > 26.5 µM
13 | CCOC(=O)c1nc2sc(Cl)cn2c1/C=N/N=C(N)N |  |  | 18.8 µM | 45.6 µM | 27.5 µM | > 58.7 µM | 26.3 µM | > 55.1 µM | 28.2 µM | > 59.6 µM | 42.7 µM | > 100 µM | 36.5 µM | > 87.2 µM | 1.72 µM | > 23.1 µM |  |  | 30.6 µM | > 74 µM
14 | CCOC(=O)c1c(C)n(Cc2ccc(Cl)cc2Cl)c2c1cc(O)c1[nH]c(Cc3ccccc3)nc12 |  |  | 11 µM | 37.5 µM | 3.24 µM | 10.1 µM | 14 µM | 30.9 µM | 2.71 µM | 6.65 µM | 7.62 µM | 19.9 µM | 9.39 µM | 37.2 µM | 1.58 µM | 3.25 µM | 0.612 µM | 2.22 µM | 5.27 µM | 25.9 µM
15 | O=C1OC(=O)c2c1cc1cc3c(cc1c2-c1ccc2c(c1)OCO2)OCO3 |  | > 100 µM |  | > 100 µM |  | > 100 µM |  | > 100 µM |  | > 100 µM |  | > 100 µM |  | > 100 µM |  | > 100 µM |  |  |  | > 100 µM
